# Results reported in patent US20080096894A1, “Anti-Bacterial Compounds” (ASTON UNIVERSITY, priority 2005, published 2008).
# Like-named read-outs stand apart in the source and are kept apart here.
# Legend:
# Assay in all cases: MIC, agar dilution, multipoint inoculator
# S. aureus = format: cell-based, Staphylococcus aureus; conditions: Staphylococcus aureus
# Procedure, shortened: (§1)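 Minimum inhibitory concentrations come from an agar dilution method using Mueller Hinton medium. Inocula of 10^4 colony forming units per spot were applied with a multipoint inoculator.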
# E. coli = format: cell-based, Escherichia coli; conditions: Escherichia coli, 18 h, upper value of MIC reading
# Description: (§2) This activity was measured using a multipoint inoculator method as follows. The MIC for each compound was measured using an agar dilution method (Onda, H., et al., Int. J. Antimicrob. Agents. 18, 263 (2001)) (Mueller Hinton agar) by means of a multipoint inoculator delivering 10^4 colony forming units per spot.
# B. bronchiseptica = format: cell-based; conditions: Bordetella bronchiseptica, NCTC8344, 18 h
# Procedure, shortened: as §1
# S. haemolyticus = format: cell-based; conditions: Staphylococcus haemolyticus, 18 h
# Procedure, shortened: as §1
# S. aboni = format: cell-based; conditions: S. aboni NCTC 6017; upper value of MIC reading
# Procedure, shortened: as §1
# S. maltophilia = format: cell-based; conditions: Stenotrophomonas maltophilia, NCTC10257, 18 h
# Procedure, shortened: as §1
# E. faecalis = format: cell-based
# Procedure, shortened: as §1
# E. cloacae = format: cell-based, Enterobacter cloacae; conditions: Enterobacter cloacae, NCTC11582, 18 h
# Description: as §2
# P. auriginosa = format: cell-based, Pseudomonas aeruginosa; conditions: Pseudomonas aeruginosa, NCTC6749, 18 h; P. auriginosa NCTC 6749; upper value of MIC reading; read-out: MIC
# Description: as §2
# S. marcesens = format: cell-based, Serratia marcescens; conditions: Serratia marcescens, 18 h
# Description: as §2
# K. pneumoniae = format: cell-based, Klebsiella pneumoniae; conditions: Klebsiella pneumoniae, 18 h
# Description: as §2
# E. faecium = format: cell-based, Enterococcus faecium; conditions: Enterococcus faecium
# Procedure, shortened: as §1
# S. epidemisis = format: cell-based, Staphylococcus epidermidis; conditions: Staphylococcus epidermidis
# Procedure, shortened: as §1
# MRSA = format: cell-based, methicillin-resistant Staphylococcus aureus
# Procedure, shortened: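 Agar dilution MIC on Mueller Hinton agar, multipoint inoculator delivering 10^4 colony forming units per spot. MRSA values are ranges across ten clinical MRSA strains; S. aureus NCTC 6571 as reference strain.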
# [1] = NCTC11047, 18 h, S. epidemisis NCTC 11047, upper value of MIC reading, read-out: MIC
structure (smiles),measurement,setting,value
"CN(C)c1ccc(/C=N/N=C(\N)c2ccncc2)c2ccccc12 [Compound 4PYdx, N^1-[(4-dimethylamino)-1-naphthylidene]-pyridine-4-carboxamidrazone]",MIC,S. aureus; 18 h,128 µg/mL
same,MIC,"S. aureus; NCTC6571, 18 h",128 µg/mL
same,MIC,"S. aureus; NCTC10788, 18 h",128 µg/mL
same,MIC,E. coli; E. coli W3110R+,128 µg/mL
same,MIC,E. coli; E. coli W3110R−,256 µg/mL
same,MIC,B. bronchiseptica,256 µg/mL
same,MIC,S. haemolyticus,256 µg/mL
same,MIC,S. aboni,32 µg/mL
same,MIC,S. maltophilia,128 µg/mL
same,MIC,"E. faecalis; E. faecalis EBH1, upper value of MIC reading",256 µg/mL
same,MIC,"E. faecalis; E. faecalis Isolate 1, upper value of MIC reading",256 µg/mL
same,MIC,"E. faecalis; E. faecalis Isolate 2, upper value of MIC reading",256 µg/mL
same,MIC,"E. faecalis; E. faecalis Isolate 4, upper value of MIC reading",256 µg/mL
same,MIC,"E. faecalis; Enterococcus faecalis, 18 h",256 µg/mL
same,MIC,"E. faecalis; Enterococcus faecalis, NCTC5957, 18 h",256 µg/mL
same,MIC,E. cloacae,256 µg/mL
same,MIC,P. auriginosa,32 µg/mL
same,MIC,S. marcesens,256 µg/mL
same,MIC,K. pneumoniae,256 µg/mL
same,MIC,E. faecium; 18 h,256 µg/mL
same,MIC,"E. faecium; NCTC7171, 18 h",256 µg/mL
same,MIC,S. epidemisis; 18 h,128 µg/mL
same,MIC,S. epidemisis; [1],64 µg/mL
same,MIC,"MRSA; MRSA Isolate 1, upper value of MIC reading, in µg/mL",128
same,MIC,"MRSA; MRSA Isolate 2, upper value of MIC reading, in µg/mL",128
same,MIC,"MRSA; MRSA Isolate 3, upper value of MIC reading, in µg/mL",128
same,MIC,"MRSA; MRSA Isolate 4, upper value of MIC reading, in µg/mL",128
same,MIC,"MRSA; MRSA Isolate 5, upper value of MIC reading, in µg/mL",128
same,MIC,"MRSA; MRSA Isolate 6, upper value of MIC reading, in µg/mL",128
same,MIC,"MRSA; MRSA Isolate 8, upper value of MIC reading, in µg/mL",128
same,MIC,"MRSA; MRSA Isolate 9, upper value of MIC reading, in µg/mL",128
same,MIC,"MRSA; MRSA Isolate 10, upper value of MIC reading, in µg/mL",128
same,MIC,"MRSA; Staphylococcus aureus, 18 h",128 µg/mL
same,MIC,"MRSA; Staphylococcus aureus, MRSA, 18 h, read-out: MRSA MIC range",64 to 128 µg/mL
"CC1(C)S[C@@H]2[C@H](NC(=O)[C@H](N)c3ccccc3)C(=O)N2[C@H]1C(=O)O [Amp., Ampicillin, reference compound]",MIC,"S. aureus; 18 h, S. aureus Cowan 1, upper value of MIC reading, read-out: MIC",0.05 µg/mL
same,MIC,"S. aureus; NCTC6571, 18 h, S. aureus NCTC 6571, upper value of MIC reading, read-out: MIC",0.05 µg/mL
same,MIC,"S. aureus; NCTC10788, 18 h, S. aureus NCTC 10788, upper value of MIC reading, read-out: MIC",0.05 µg/mL
same,MIC,E. coli; E. coli W3110R+,> 16 µg/mL
same,MIC,E. coli; E. coli W3110R−,1 µg/mL
same,MIC,"B. bronchiseptica; B. bronchiseptica NCTC 8344, upper value of MIC reading, read-out: MIC",1 µg/mL
same,MIC,"S. haemolyticus; S. haemolyticus Isolate 1, upper value of MIC reading, read-out: MIC",1 µg/mL
same,MIC,S. aboni,0.05 µg/mL
same,MIC,"S. maltophilia; S. maltophilia NCTC 10257, upper value of MIC reading, read-out: MIC",16 µg/mL
same,MIC,"E. faecalis; Enterococcus faecalis, 18 h, E. faecalis EBH1, upper value of MIC reading, read-out: MIC",0.05 µg/mL
same,MIC,"E. faecalis; Enterococcus faecalis, 18 h, E. faecalis Isolate 1, upper value of MIC reading, read-out: MIC",0.05 µg/mL
same,MIC,"E. faecalis; Enterococcus faecalis, 18 h, E. faecalis Isolate 2, upper value of MIC reading, read-out: MIC",0.05 µg/mL
same,MIC,"E. faecalis; Enterococcus faecalis, 18 h, E. faecalis Isolate 3, upper value of MIC reading, read-out: MIC",0.05 µg/mL
same,MIC,"E. faecalis; Enterococcus faecalis, 18 h, E. faecalis Isolate 4, upper value of MIC reading, read-out: MIC",2 µg/mL
same,MIC,"E. faecalis; Enterococcus faecalis, 18 h, E. faecalis Isolate 5, upper value of MIC reading, read-out: MIC",2 µg/mL
same,MIC,"E. faecalis; Enterococcus faecalis, NCTC5957, 18 h, E. faecalis NCTC 5957, upper value of MIC reading, read-out: MIC",2 µg/mL
same,MIC,"E. cloacae; E. cloacae NCTC 11582, upper value of MIC reading, read-out: MIC",16 µg/mL
same,MIC,P. auriginosa,16 µg/mL
same,MIC,"S. marcesens; S. marcesens 4444, upper value of MIC reading, read-out: MIC",8 µg/mL
same,MIC,"K. pneumoniae; K. pneumoniae 327, upper value of MIC reading, read-out: MIC",> 16 µg/mL
same,MIC,"E. faecium; 18 h, E. faecium ACTCC 10541, upper value of MIC reading, read-out: MIC",2 µg/mL
same,MIC,"E. faecium; NCTC7171, 18 h, E. faecium NCTC 7171, upper value of MIC reading, read-out: MIC",1 µg/mL
same,MIC,"S. epidemisis; 18 h, S. epidemisis Isolate 1, upper value of MIC reading, read-out: MIC",8 µg/mL
same,MIC,S. epidemisis; [1],4 µg/mL
same,MIC,"MRSA; Staphylococcus aureus, 18 h, MRSA Isolate 1, upper value of MIC reading, read-out: MIC",0.12 µg/mL
same,MIC,"MRSA; Staphylococcus aureus, 18 h, MRSA Isolate 2, upper value of MIC reading, read-out: MIC",8 µg/mL
same,MIC,"MRSA; Staphylococcus aureus, 18 h, MRSA Isolate 3, upper value of MIC reading, read-out: MIC",8 µg/mL
same,MIC,"MRSA; Staphylococcus aureus, 18 h, MRSA Isolate 4, upper value of MIC reading, read-out: MIC",8 µg/mL
same,MIC,"MRSA; Staphylococcus aureus, 18 h, MRSA Isolate 5, upper value of MIC reading, read-out: MIC",8 µg/mL
same,MIC,"MRSA; Staphylococcus aureus, 18 h, MRSA Isolate 6, upper value of MIC reading, read-out: MIC",8 µg/mL
same,MIC,"MRSA; Staphylococcus aureus, 18 h, MRSA Isolate 7, upper value of MIC reading, read-out: MIC",8 µg/mL
same,MIC,"MRSA; Staphylococcus aureus, 18 h, MRSA Isolate 8, upper value of MIC reading, read-out: MIC",8 µg/mL
same,MIC,"MRSA; Staphylococcus aureus, 18 h, MRSA Isolate 9, upper value of MIC reading, read-out: MIC",8 µg/mL
same,MIC,"MRSA; Staphylococcus aureus, 18 h, MRSA Isolate 10, upper value of MIC reading, read-out: MIC",8 µg/mL
